Tested on: target transcript mRNA in A549 cells
Experiment: Level of mRNA of target transcript in A549 cells by quantitative RT-PCR (Tables 12 and 13)
Format: cell-based, human
Conditions: 24 h post-transfection; for mRNA knockdown of energy and metabolism gene target transcript, 10 nM: 10 nM siRNA
Experimental: A549 cells were transfected as described before with 0.1, 1.0 and 10 nM siRNA as listed in Tables 10 and 11 and the relative mRNA levels quantified 24 h post-transfection. RNA was purified from cells using Trizol® extraction as per the manufacturer's protocol (Invitrogen). cDNA was prepared by digesting approximately 200 ng purified RNA with DNAse I (Invitrogen) for 15 minutes at room temperature, followed by 15 minutes at 65° C. in the presence of 25 mM EDTA. 30 ng random primers were added and incubated for 10 minutes at 65° C., 1 minute on ice; Superscript® III polymerase (Invitrogen) was added in presence of 5 nM DTT (Invitrogen) and 1 mM deoxyribonucleotides (Invitrogen), and the reaction incubated at 25° C. for 5 minutes, followed by an hour at 50° C. cDNA was diluted 1:3 in 10 mM Tris pH 7.0, and quantitative RT-PCR carried out on an ABI Prism 7900HT (Applied Biosciences, Inc., Foster City, Calif.) using FastStart TaqMan SYBRGreen (Roche, Basel, Switzerland) or Platinum SYBR Green (Invitrogen) and 360 nM of the primers specific for gene targets and housekeeping genes HPRT and Lamin. Reduction in target mRNA levels following siRNA transfection are given in Tables 12 and 13, together with the gene specific primer sequences. Primer sequences used for the housekeeping genes HPRT and Lamin are given in SEQ ID NO: 4885-4888.

Substance	mRNA knockdown of energy and metabolism gene target transcript, 0.1 nM (0.1 nM siRNA)	mRNA knockdown of energy and metabolism gene target transcript, 1 nM (1 nM siRNA)	mRNA knockdown of energy and metabolism gene target transcript, 10 nM	mRNA knockdown of transporter gene target transcript, 0.1 nM (0.1 nM siRNA)	mRNA knockdown of transporter gene target transcript, 1 nM (1 nM siRNA)
3563 (ATGCGGCTACGGATGTTGGGATCATTATTA; chemistry not given here) [compound 3563]	++ (70-90% mRNA knockdown)	+++ (>90% mRNA knockdown)			
3557 (CTACGGATGTTGGGATCATTATTA; chemistry not given here) [compound 3557]	++ (70-90% mRNA knockdown)	++ (70-90% mRNA knockdown)			
3579 (GTGAAGCGGTTTTTCTCCAAGTACTC; chemistry not given here) [compound 3579]	++ (70-90% mRNA knockdown)	+++ (>90% mRNA knockdown)			
3584 (ACAGAGGAGCAAGATACAGGC; chemistry not given here) [compound 3584]	++ (70-90% mRNA knockdown)	++ (70-90% mRNA knockdown)			
3550 (AGGCAACTACCGCGAGCTGCGCTGGTT; chemistry not given here) [compound 3550]	++ (70-90% mRNA knockdown)	++ (70-90% mRNA knockdown)	+++ (>90% mRNA knockdown)		
3538 (CCAAGGGTAGGAGCCCTACACTAGG; chemistry not given here) [compound 3538]	++ (70-90% mRNA knockdown)	++ (70-90% mRNA knockdown)	+++ (>90% mRNA knockdown)		
3534 (GGGTAGGAGCCCTACACTAGG; chemistry not given here) [compound 3534]	++ (70-90% mRNA knockdown)	++ (70-90% mRNA knockdown)			
3549 (GGCAACTACCGCGAGCTGCGCTGGTT; chemistry not given here) [compound 3549]	+ (50-70% mRNA knockdown)	+++ (>90% mRNA knockdown)	++ (70-90% mRNA knockdown)		
3535 (AGGGTAGGAGCCCTACACTAGG; chemistry not given here) [compound 3535]	++ (70-90% mRNA knockdown)	+++ (>90% mRNA knockdown)			
3573 (TGGTCACCAGCAAGAACGGTGGGATTTACT; chemistry not given here) [compound 3573]	++ (70-90% mRNA knockdown)	+++ (>90% mRNA knockdown)			
3560 (CGGCTACGGATGTTGGGATCATTATTA; chemistry not given here) [compound 3560]	++ (70-90% mRNA knockdown)	++ (70-90% mRNA knockdown)			
3559 (GGCTACGGATGTTGGGATCATTATTA; chemistry not given here) [compound 3559]	++ (70-90% mRNA knockdown)	++ (70-90% mRNA knockdown)			
1693 (ATTTGCCAACAGGATCTTCGGCCCCATCTG; chemistry not given here) [compound 1693]	− (<50% mRNA knockdown)	− (<50% mRNA knockdown)			
1698 (AGAACGTGAAGCTCCCTGACGCCTA; chemistry not given here) [compound 1698]	+ (50-70% mRNA knockdown)	+ (50-70% mRNA knockdown)			
3575 (AGCGGTTTTTCTCCAAGTACTC; chemistry not given here) [compound 3575]	+++ (>90% mRNA knockdown)	+++ (>90% mRNA knockdown)			
3553 (TGAAGGCAACTACCGCGAGCTGCGCTGGTT; chemistry not given here) [compound 3553]	++ (70-90% mRNA knockdown)	++ (70-90% mRNA knockdown)			
1690 (TGCCAACAGGATCTTCGGCCCCATCTG; chemistry not given here) [compound 1690]	++ (70-90% mRNA knockdown)	++ (70-90% mRNA knockdown)			
3546 (AACTACCGCGAGCTGCGCTGGTT; chemistry not given here) [compound 3546]	+ (50-70% mRNA knockdown)	++ (70-90% mRNA knockdown)	+++ (>90% mRNA knockdown)		
3597 (CAACAGGAAGATCCTGCTCATCAG; chemistry not given here) [compound 3597]	+ (50-70% mRNA knockdown)	++ (70-90% mRNA knockdown)			
3594 (CAGGAAGATCCTGCTCATCAG; chemistry not given here) [compound 3594]	− (<50% mRNA knockdown)	+ (50-70% mRNA knockdown)			
3554 (CGGATGTTGGGATCATTATTA; chemistry not given here) [compound 3554]	++ (70-90% mRNA knockdown)	++ (70-90% mRNA knockdown)			
SEQ ID NO: 4914: siRNA targeting SLC19A2 (ThTr1) (chain 1 TTATATAACCAACTGCAAACACAGC; chain 2 UUAUAUAACCAACUGCAAACACAGC; chemistry not given here; one strand in two spellings)				++ (70-90% mRNA knockdown)	+++ (>90% mRNA knockdown)
3541 (GAGCCAAGGGTAGGAGCCCTACACTAGG; chemistry not given here) [compound 3541]	− (<50% mRNA knockdown)	− (<50% mRNA knockdown)	− (<50% mRNA knockdown)		
1696 (AACGTGAAGCTCCCTGACGCCTA; chemistry not given here) [compound 1696]	− (<50% mRNA knockdown)	− (<50% mRNA knockdown)			
3533 (AGATTGGAAGCCACCACATCAGTCTCAACA; chemistry not given here) [compound 3533]	− (<50% mRNA knockdown)	++ (70-90% mRNA knockdown)			
3564 (GCAAGAACGGTGGGATTTACT; chemistry not given here) [compound 3564]	++ (70-90% mRNA knockdown)	+++ (>90% mRNA knockdown)			
3536 (AAGGGTAGGAGCCCTACACTAGG; chemistry not given here) [compound 3536]	++ (70-90% mRNA knockdown)	+++ (>90% mRNA knockdown)	+++ (>90% mRNA knockdown)		
1691 (TTGCCAACAGGATCTTCGGCCCCATCTG; chemistry not given here) [compound 1691]	− (<50% mRNA knockdown)	++ (70-90% mRNA knockdown)			
1686 (AACAGGATCTTCGGCCCCATCTG; chemistry not given here) [compound 1686]	− (<50% mRNA knockdown)	− (<50% mRNA knockdown)			
3547 (CAACTACCGCGAGCTGCGCTGGTT; chemistry not given here) [compound 3547]	++ (70-90% mRNA knockdown)	++ (70-90% mRNA knockdown)	+++ (>90% mRNA knockdown)		
